This is an account of results in PubChem BioAssay (NCI).

The structures appear in SMILES notation. “And” between values parts separate entries of the source, which are not always exact repeats. Equal entries are not always repeated.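 Cultured in 96-well plates, cells were exposed to test compound for 48 hours across five concentrations. GI50 is the concentration that inhibits growth by half. The concentration for full growth arrest is given as TGI.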

Common to all, as to assay: NCI anticancer screen, dose series, 48 h
Test [1] concerns ACHN renal.
For test [2], the system named is BT-549 breast.
In test [3] the test system is HCT-15 colon.
In test [4] the test system is KM12 colon.
For test [5], the system named is MCF7 breast.
In test [6] the test system is OVCAR-5 ovarian.
Test [7] has as its system OVCAR-8 ovarian.
Test [8] relates to PC-3 prostate.
Test [9] has as its system SW-620 colon.
Test [10] concerns UACC-257 melanoma.

On to `Cc1cc(I)cc(CNCCN2CCOCC2)c1O`, for which the GI50 was above 100000 nM in test [1]; 15400 nM in test [2]; above 100000 nM in test [3]; 86800 nM in test [4]; above 100000 nM in test [5]; 59.8 µM in [6]. Moreover, the GI50 was above 100000 nM in [7], above 100000 nM in [8], above 100000 nM in test [9] and above 100 µM in test [10]. Further, the TGI is above 100 µM in [1]; 61.3 µM in [2]; above 100 µM in test [3]; above 100 µM in test [4]; above 100 µM in test [5]; above 100 µM in test [6]. For the same compound, the TGI in test [7], in [8], in [9] and in test [10] was above 100 µM throughout.

`CN(C)c1ccc(/C=C(\C#N)c2ccccc2)cc1`: the GI50 is 901 nM and 688 nM and 1370 nM in test [1]; 121 nM and 794 nM and 621 nM in test [2]; 300 nM and 348 nM and 383 nM in test [3]; 307 nM and 425 nM and 437 nM in test [4]; 261 nM and 276 nM and 281 nM in test [5]; 4.51 µM and 17.2 µM and 10.3 µM in test [6]. In addition, the GI50 in [7] was 610 nM and 2520 nM and 2650 nM; in test [8] it was 272 nM and 1920 nM and 956 nM; in test [9], 280 nM and 447 nM and 444 nM; in test [10], 44.7 µM and 57.4 µM. In addition, the TGI in [1] is above 100 µM; in test [3], above 100 µM; in test [4], 21.8 µM and > 100 µM; in [5], above 100 µM; in test [6], above 100 µM; in test [7], above 100 µM. Further, the TGI in test [8], in test [9] and in test [10] was above 100 µM in each case.

Take `C[C@@H]1CC[C@H]2[C@@H](C)C(OC/C=C/COC3O[C@@H]4O[C@@]5(C)CC[C@H]6[C@H](C)CC[C@@H]([C@H]3C)[C@@]46OO5)O[C@@H]3O[C@@]4(C)CC[C@@H]1[C@]32OO4` (stereo partly specified): the GI50 in test [1] is below 16.9 nM; in [2], 30.4 nM; in test [3], below 10 nM; in test [4], below 10 nM; in test [5] it was below 10 nM; in test [6], below 0.01 µM. The GI50 in [7] is below 10 nM; in test [8], below 10 nM; in [9], below 10 nM; in test [10], 0.0401 µM. Also, the TGI is above 100 µM in test [2]; above 33 µM in test [3]; 20.1 µM in test [5]; 0.257 µM in [6]; above 38 µM in [7]; above 100 µM in [8]. Besides, the figures for the TGI in test [9] and in [10] were above 100 µM and 48 µM, respectively.

Regarding `CC(C)n1nc(C#Cc2cccc(O)c2)c2c(N)ncnc21`, the GI50 was 1050 nM and 461 nM in test [1]; 1330 nM and 1340 nM in test [2]; 1350 nM and 906 nM in test [3]; 1750 nM and 2330 nM in test [4]; 1620 nM and 1510 nM in test [5]; 1.79 µM and 1.62 µM in [6]. Moreover, the GI50 in test [7] is 1990 nM and 2410 nM; in test [8], 1370 nM and 1180 nM; in test [9] it was 2080 nM and 1720 nM; in test [10], 1.22 µM and 1.63 µM. Also, the TGI in test [1] was 4.18 µM and 3.96 µM; in test [2], 4.56 µM and 6.18 µM; in test [3], 21.6 µM and 10.1 µM; in test [4], 25.8 µM and 60.8 µM; in test [5], 50 µM and 11.9 µM; in test [6], 16.4 µM and 8 µM. Besides, the TGI is 30.1 µM and 16.1 µM in test [7]; 12.3 µM and 13.9 µM in test [8]; 50 µM and 31.9 µM in test [9]; 6.17 µM and 4.95 µM in test [10].

For the compound `Cc1cc(O[C@@H]2O[C@@H](C)[C@H](O)[C@@H](O)[C@H]2O)c2c3c(c(O[C@@H]4O[C@@H](C)[C@H](O)[C@@H](O)[C@H]4O)cc2c1)C(=O)c1c(O)cccc1C3=O`, the GI50 in test [1] was above 30000 nM; in [2], above 30000 nM; in [3], above 30000 nM; in test [4], above 30000 nM; in test [5] it was above 30000 nM; in [6], above 30 µM. Moreover, the GI50 in test [7] is above 30000 nM; in test [8] it was above 30000 nM; in test [9], above 30000 nM; in test [10], above 30 µM. Moreover, the TGI in test [1], in test [2], in test [3], in [4], in [5] and in [6] was above 30 µM each time. For the same compound, the TGI in test [7], in test [8], in test [9] and in [10] was above 30 µM in each case.

`COc1ccc(NC(=S)C#N)cc1`: the TGI in test [1], in test [2], in test [3], in [4], in test [5] and in [6] was above 100 µM each time. Also, the TGI in [7], in test [8], in test [9] and in test [10] was above 100 µM throughout.

Take `COc1cc(-c2cc(-c3cccs3)c(C#N)c(N3CCOCC3)n2)cc(OC)c1OC`: the GI50 in test [1] is 6450 nM; in test [2] it was 8220 nM; in test [3] it was 3090 nM; in test [4], 6020 nM; in [5], 6680 nM; in [6] it was above 100 µM. The GI50 in test [7] is above 30400 nM; in test [8], 5290 nM; in [9] it was 1950 nM; in test [10] it was 3.22 µM. Besides, the TGI in [1], in test [2], in test [3], in [4], in test [5] and in test [6] was above 100 µM throughout. In addition, the TGI in [7] was above 100 µM; in test [8], above 100 µM; in test [9], 4.62 µM; in test [10] it was 9.9 µM.

`CC1NC(C(=O)O)Cc2cc(O)c(O)cc21` (stereo unspecified): the TGI in test [1], in [2], in test [3], in test [4], in [5] and in test [6] was above 100 µM each time. Also, the TGI in test [7], in test [8], in test [9] and in test [10] was above 100 µM in each case.

For the compound `C[C@]12CCCN1CC1=NNC(=O)c3cc(F)cc4[nH]c2c1c34`, the GI50 in test [1] was 21100 nM; in test [2], 23200 nM; in test [3] it was 21200 nM; in [4], 9600 nM; in test [5] it was 11600 nM; in test [6] it was 20.2 µM. The GI50 in [7] was 19500 nM; in test [8], 20700 nM; in test [9], 16700 nM; in [10] it was 25.1 µM. The TGI in [1] was above 100 µM; in [2], 99.6 µM; in test [3] it was above 100 µM; in test [4], 30.3 µM; in test [5] it was above 100 µM; in [6], above 100 µM. In addition, the TGI in [7] was above 100 µM; in [8], above 100 µM; in [9], above 100 µM; in test [10] it was 73.6 µM.

Consider `COc1ccc(C2CC(c3ccccc3)=NN2C(=O)c2cc(OC)c(OC)c(OC)c2)cc1O` (stereo unspecified), for which the GI50 in test [1] was 816 nM; in [2] it was 2000 nM; in test [3] it was 352 nM; in test [4], 371 nM; in test [5], 339 nM; in test [6], 8.43 µM. The GI50 in test [7] was 659 nM; in test [8] it was 369 nM; in [9], 415 nM; in [10], 22.1 µM. In addition, the TGI is 58.1 µM in [1]; 21.4 µM in test [2]; 40.2 µM in test [3]; 24.1 µM in test [4]; above 53.6 µM in test [5]; above 65.5 µM in test [6]. In addition, the TGI is above 76.5 µM in test [7], above 52.8 µM in test [8], above 55.7 µM in test [9] and above 54.3 µM in test [10].

Consider `COc1ccc(N=N/C(=N\NC(=O)c2cc(Br)ccc2O)c2ccc(N(CCC#N)CCC#N)cc2OC)cc1`, for which the GI50 was 85.7 µg/mL in test [1]; above 150 µg/mL in test [2]; 42 µg/mL in [3]; 44.6 µg/mL in [4]; 58.7 µg/mL in [5]; 108 µg/mL in test [6]. The GI50 was 47.5 µg/mL in test [7], 57.6 µg/mL in test [8], above 150 µg/mL in test [9] and above 150 µg/mL in test [10]. The TGI in test [1] was above 150 µg/mL; in test [2], above 150 µg/mL; in [3], above 150 µg/mL; in test [4] it was 128 µg/mL; in test [5], above 150 µg/mL; in test [6] it was above 150 µg/mL. In addition, the TGI in [7], in [8], in test [9] and in test [10] was above 150 µg/mL throughout.

Regarding `CC(=O)NC(CS)C(=O)O` (stereo unspecified), the GI50 in test [1] was above 100000 nM; in [3], above 100000 nM; in [4], above 100000 nM; in [5], above 100000 nM; in test [6], above 100 µM; in [7], above 100000 nM. The GI50 in test [8] was above 100000 nM; in test [9], above 100000 nM; in test [10], above 100 µM. For the same compound, the TGI in test [1] is above 100 µM; in [2], above 100 µM; in test [3] it was > 100 µM and 47600 µM; in test [4], > 100 µM and 98100 µM; in [5] it was > 100 µM and 71300 µM; in test [6], > 100 µM and 66200 µM. Moreover, the TGI in test [7] was > 100 µM and 88800 µM; in [8], above 100 µM; in test [9], above 100 µM; in test [10] it was above 100 µM.
